Reference: patent US10781224B2, “Bis(oxymethyl)phosphinic acid and biogenic metal salts thereof as regulators of plant growth and development” (priority 2016, dated 2020)

Columns and labels:
Assay type in all cases: in vivo
rice (Diamant variety) = test: Rice seed treatment with BHMPA salts: germination energy and germination rate
Method in brief: (§1)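 Corn, winter wheat and rice seeds (50 per dish, on filter paper) were soaked for 1 h in BHMPA or its metal salts at 1·10^−6-1·10^−12%, with water as control. Germination energy was read on day 4 and germination rate on day 8 for wheat and day 7 for rice and corn, following GOST 12038-84, as the mean of four replicates.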

[1] = system: winter wheat (Vershin variety); test: Winter wheat seed treatment with BHMPA salts: germination energy and germination rate
Method in brief: as §1

[2] = system: corn (Krasnodar 385 MV variety); test: Corn seed treatment with BHMPA salts: germinating power
Method in brief: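 Seeds (50 per Petri dish on two layers of filter paper) soaked 1 h in BHMPA or its Ca, Mg, Na, Co, Mn, Cu or Zn salts at 1·10^−6-1·10^−12%, with water controls. Germination energy read on day 4, germination on day 8 (wheat) or day 7 (rice, corn), as % means of four replicates. Germinating power taken as root and sprout length plus wet and dry mass per 100 seedlings.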

[3] = rice seed treatment, solution 1 · 10^−11%
[4] = seed treatment, concentration 1 · 10^−6%
[5] = seed treatment, concentration 1 · 10^−7%
[6] = seed treatment, concentration 1 · 10^−8%
[7] = seed treatment, concentration 1 · 10^−9%
[8] = seed treatment, concentration 1 · 10^−10%
[9] = seed treatment, concentration 1 · 10^−11%
[10] = seed treatment, concentration 1 · 10^−12%
[11] = winter wheat Vershin, 1·10^−6% solution
[12] = winter wheat Vershin, 1·10^−7% solution
[13] = winter wheat Vershin, 1·10^−8% solution
[14] = winter wheat Vershin, 1·10^−9% solution
[15] = winter wheat Vershin, 1·10^−10% solution
[16] = winter wheat Vershin, 1·10^−11% solution
[17] = winter wheat Vershin, 1·10^−12% solution
[18] = winter wheat, comparative study vs Melaphen, 1·10^−9% solution
[19] = corn seeds, solution concentration 1 · 10^−6%, sodium salt of BHMPA
[20] = corn seeds, solution concentration 1 · 10^−7%, sodium salt of BHMPA
[21] = corn seeds, solution concentration 1 · 10^−8%, sodium salt of BHMPA
[22] = corn seeds, solution concentration 1 · 10^−9%, sodium salt of BHMPA
[23] = corn seeds, solution concentration 1 · 10^−10%, sodium salt of BHMPA
[24] = corn seeds, solution concentration 1 · 10^−11%, sodium salt of BHMPA
[25] = corn seeds, solution concentration 1 · 10^−12%, sodium salt of BHMPA

O=P([O-])(CO)CO.[Na+] [Na-salt, Sodium BHMPA Salt]
Germination energy, % (rice (Diamant variety); [3]): 85.0% | Germination rate, % (rice (Diamant variety); [3]): 92.0% | Germination energy (rice (Diamant variety); rice, 1·10^−11% solution): 84.0% | Germination rate (rice (Diamant variety); rice, 1·10^−11% solution): 90.3% | Germination energy (rice (Diamant variety); [4]): 74.7% | Germination rate (rice (Diamant variety); [4]): 80.3% | Germination energy (rice (Diamant variety); [5]): 76.7% | Germination rate (rice (Diamant variety); [5]): 82.8% | Germination energy (rice (Diamant variety); [6]): 78.3% | Germination rate (rice (Diamant variety); [6]): 84.0% | Germination energy (rice (Diamant variety); [7]): 80.0% | Germination rate (rice (Diamant variety); [7]): 86.3% | Germination energy (rice (Diamant variety); [8]): 82.3% | Germination rate (rice (Diamant variety); [8]): 88.0% | Germination energy (rice (Diamant variety); [9]): 84.0% | Germination rate (rice (Diamant variety); [9]): 90.3% | Germination energy (rice (Diamant variety); [10]): 79.0% | Germination rate (rice (Diamant variety); [10]): 85.3% | Germination energy [1, 11]: 84.4% | Germination rate [1, 11]: 86.0% | Germination energy [1, 12]: 86.7% | Germination rate [1, 12]: 89.0% | Germination energy [1, 13]: 90.2% | Germination rate [1, 13]: 94.0% | Germination energy [1, 14]: 92.3% | Germination rate [1, 14]: 95.3% | Germination energy [1, 15]: 88.4% | Germination rate [1, 15]: 92.0% | Germination energy [1, 16]: 85.0% | Germination rate [1, 16]: 88.0% | Germination energy [1, 17]: 83.2% | Germination rate [1, 17]: 86.3% | Germination energy [1, 18]: 87.3% | Germination rate [1, 18]: 93.7% | optimum concentration for treating corn seeds before sowing ([2]; corn): 1·10^−10% | Length, root [2, 19]: 4.5 cm | Length, root, + % to control [2, 19]: −4% | Length, sprout [2, 19]: 2.4 cm | Length, sprout, + % to control [2, 19]: −14% | Mass, dry, root [2, 19]: 0.99 g/100 plantlings | Mass, dry, root, + % to control [2, 19]: −19% | Mass, dry, sprout [2, 19]: 0.69 g/100 plantlings | Mass, dry, sprout, + % to control [2, 19]: −4% | Mass, wet, root [2, 19]: 5.95 g/100 plantlings | Mass, wet, root, + % to control [2, 19]: −12% | Mass, wet, sprout [2, 19]: 4.34 g/100 plantlings | Mass, wet, sprout, + % to control [2, 19]: −5% | Length, root [2, 20]: 4.9 cm | Length, root, + % to control [2, 20]: 4% | Length, sprout [2, 20]: 2.6 cm | Length, sprout, + % to control [2, 20]: −7% | Mass, dry, root [2, 20]: 1.03 g/100 plantlings | Mass, dry, root, + % to control [2, 20]: −15.5% | Mass, dry, sprout [2, 20]: 0.77 g/100 plantlings | Mass, dry, sprout, + % to control [2, 20]: 7% | Mass, wet, root [2, 20]: 6.72 g/100 plantlings | Mass, wet, root, + % to control [2, 20]: −1% | Mass, wet, sprout [2, 20]: 4.62 g/100 plantlings | Mass, wet, sprout, + % to control [2, 20]: 1% | Length, root [2, 21]: 5.0 cm | Length, root, + % to control [2, 21]: 6% | Length, sprout [2, 21]: 2.8 cm | Length, sprout, + % to control [2, 21]: 0% | Mass, dry, root [2, 21]: 1.18 g/100 plantlings | Mass, dry, root, + % to control [2, 21]: −3% | Mass, dry, sprout [2, 21]: 0.86 g/100 plantlings | Mass, dry, sprout, + % to control [2, 21]: 19% | Mass, wet, root [2, 21]: 6.93 g/100 plantlings | Mass, wet, root, + % to control [2, 21]: 2% | Mass, wet, sprout [2, 21]: 4.74 g/100 plantlings | Mass, wet, sprout, + % to control [2, 21]: 4% | Length, root [2, 22]: 5.2 cm | Length, root, + % to control [2, 22]: 11% | Length, sprout [2, 22]: 3.0 cm | Length, sprout, + % to control [2, 22]: 7% | Mass, dry, root [2, 22]: 1.25 g/100 plantlings | Mass, dry, root, + % to control [2, 22]: 2% | Mass, dry, sprout [2, 22]: 0.69 g/100 plantlings | Mass, dry, sprout, + % to control [2, 22]: 26% | Mass, wet, root [2, 22]: 7.08 g/100 plantlings | Mass, wet, root, + % to control [2, 22]: 4% | Mass, wet, sprout [2, 22]: 4.91 g/100 plantlings | Mass, wet, sprout, + % to control [2, 22]: 7% | Length, root [2, 23]: 5.5 cm | Length, root, + % to control [2, 23]: 17% | Length, sprout [2, 23]: 3.1 cm | Length, sprout, + % to control [2, 23]: 11% | Mass, dry, root [2, 23]: 1.30 g/100 plantlings | Mass, dry, root, + % to control [2, 23]: 6.5% | Mass, dry, sprout [2, 23]: 1.12 g/100 plantlings | Mass, wet, root [2, 23]: 7.19 g/100 plantlings | Mass, wet, sprout [2, 23]: 5.35 g/100 plantlings | Mass, wet, sprout, + % to control [2, 23]: 17% | Length, root [2, 24]: 5.3 cm | Length, root, + % to control [2, 24]: 13% | Length, sprout [2, 24]: 2.9 cm | Length, sprout, + % to control [2, 24]: 3.5% | Mass, dry, root [2, 24]: 1.26 g/100 plantlings | Mass, dry, root, + % to control [2, 24]: 3% | Mass, dry, sprout [2, 24]: 0.92 g/100 plantlings | Mass, dry, sprout, + % to control [2, 24]: 28% | Mass, wet, root [2, 24]: 6.88 g/100 plantlings | Mass, wet, root, + % to control [2, 24]: 1% | Mass, wet, sprout [2, 24]: 4.99 g/100 plantlings | Mass, wet, sprout, + % to control [2, 24]: 9% | Length, root [2, 25]: 4.6 cm | Length, root, + % to control [2, 25]: −2% | Length, sprout [2, 25]: 2.6 cm | Length, sprout, + % to control [2, 25]: −7% | Mass, dry, root [2, 25]: 0.95 g/100 plantlings | Mass, dry, root, + % to control [2, 25]: −22% | Mass, dry, sprout [2, 25]: 0.80 g/100 plantlings | Mass, dry, sprout, + % to control [2, 25]: 11% | Mass, wet, root [2, 25]: 6.12 g/100 plantlings | Mass, wet, root, + % to control [2, 25]: −10% | Mass, wet, sprout [2, 25]: 4.37 g/100 plantlings | Mass, wet, sprout, + % to control [2, 25]: −4% | effectiveness on germinating power ([2]; corn, 1·10^−6% and 1·10^−12% solutions): ineffective | Length, root, + % to control ([2]; corn, 1·10^−10% solution): 17% | Length, sprout, + % to control ([2]; corn, 1·10^−10% solution): 11% | Mass, dry, root, + % to control ([2]; corn, 1·10^−10% solution): 6.5% | Mass, dry, sprout, + % to control ([2]; corn, 1·10^−10% solution): 55.5% | Mass, wet, root, + % to control ([2]; corn, 1·10^−10% solution): 6% | Mass, wet, sprout, + % to control ([2]; corn, 1·10^−10% solution): 17%
